Laboratory results published in US20050228180A1, “Alpha, omega-dicarboximide derivatives as useful uro-selective a1a adrenoceptor blockers” (priority 2002, published 2005).
Counter-ions that a name gives are not always drawn.

Key:
α1B adrenoceptor = molecular target: T1, α1B adrenoceptor (Rattus norvegicus, UniProt P15823); experiment: Radioligand binding, [3H] prazosin displacement, rat liver membranes; conditions: read-out: Affinity (Ki) α1B (Rat Liver)
T1 construct: from tissue; host or cells: rat liver membranes
T1 sequence (P15823 1-515): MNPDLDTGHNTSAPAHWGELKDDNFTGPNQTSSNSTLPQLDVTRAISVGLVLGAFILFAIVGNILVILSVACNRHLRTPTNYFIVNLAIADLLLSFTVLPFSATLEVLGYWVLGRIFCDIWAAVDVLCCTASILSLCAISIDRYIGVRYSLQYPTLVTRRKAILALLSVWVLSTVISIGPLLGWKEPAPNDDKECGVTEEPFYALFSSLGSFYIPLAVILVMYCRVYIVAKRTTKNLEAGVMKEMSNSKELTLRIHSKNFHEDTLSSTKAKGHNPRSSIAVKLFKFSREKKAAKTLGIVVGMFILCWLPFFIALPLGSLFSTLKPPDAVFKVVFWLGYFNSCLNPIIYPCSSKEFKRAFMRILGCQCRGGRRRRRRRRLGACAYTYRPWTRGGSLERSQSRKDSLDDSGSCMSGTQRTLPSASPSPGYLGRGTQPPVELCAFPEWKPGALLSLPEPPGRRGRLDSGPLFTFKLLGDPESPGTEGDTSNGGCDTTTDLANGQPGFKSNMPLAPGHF
Procedure, shortened: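 Rat membranes (submaxillary for α1A, liver for α1B; 150-250 μg protein) incubated with [3H]prazosin and compound in Tris 50 mM/EDTA 5 mM pH 7.4, 1 h at 24-25° C. Nonspecific binding with 300 nM prazosin; filtration, counting; Ki via Cheng–Prusoff.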

[1] = molecular target: T2, α1A adrenoceptor (prostate) (Rattus norvegicus, UniProt P43140); experiment: In vitro functional assay, isolated prostate, phenylepinephrine contraction; format: cell-based
T2 construct: from tissue; host or cells: isolated prostate tissue
T2 sequence (P43140 1-466): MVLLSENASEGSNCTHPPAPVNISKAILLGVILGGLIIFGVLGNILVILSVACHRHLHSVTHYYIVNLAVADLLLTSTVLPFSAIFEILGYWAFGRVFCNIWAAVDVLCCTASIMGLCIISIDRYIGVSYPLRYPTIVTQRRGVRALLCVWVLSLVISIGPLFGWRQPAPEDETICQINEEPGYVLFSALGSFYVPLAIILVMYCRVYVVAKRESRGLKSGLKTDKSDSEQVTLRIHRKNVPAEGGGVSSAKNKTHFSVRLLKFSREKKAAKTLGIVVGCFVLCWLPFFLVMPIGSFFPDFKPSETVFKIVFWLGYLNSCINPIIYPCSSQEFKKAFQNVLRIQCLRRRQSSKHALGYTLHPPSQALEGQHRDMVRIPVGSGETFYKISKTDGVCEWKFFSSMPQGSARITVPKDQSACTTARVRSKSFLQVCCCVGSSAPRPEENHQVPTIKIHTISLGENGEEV
Procedure, shortened: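 Rat aorta, spleen and prostate strips from urethane-anaesthetised male Wistar rats in Krebs-Henseleit at 37 °C (95% O2/5% CO2), 2 g or 1 g resting tension, 2 h equilibration. Norepinephrine (aorta) or phenylephrine (spleen, prostate) contraction curves run without and with compound at […]; antagonist affinity given as pKB.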

conscious beagle dogs = experiment: In vivo uroselectivity study: phenylephrine response on MAP and IUP; set-up: species or system dog; conditions: 30 μg/kg p.o.
Text: In order to assess the uroselectivity in vivo, the effects of these compounds were studied on mean arterial pressure (MAP) and intraurethral pressure (UP) in conscious beagle dogs as per the method of Brune et al. (Pharmacol., 1996, 53:356). Briefly, male dogs were instrumented for chronic continuous measurement of arterial blood pressure by implanting a telemetry transmitter (TL11M2-D70-PCT, Data Sci. International, St. Paul, Minn. USA) into the femoral artery, two weeks prior to the study. During the recovery period, the animal was acclimatized to stay in the sling restraint. On the day of testing, overnight fasted animal was placed in the sling restraint. A Swan-Ganz. Balloon tipped catheter was introduced into the urethra at the level of prostate and the balloon was inflated (Brune. et. al. 1996). After recording the base line readings, effect of 16 μg/kg, phenylephrine (i.v.) on MAP and IUP was recorded. The response of phenylephrine to MAP and […] were recorded at 0.5, 1, 2, 3, 4, 6, 9 and 24 hours after the oral administration of vehicle or the test drug. The changes in MAP were recorded on line using Dataquest Software (Data Sci. International, St. Paul, Minn. USA). The change in phenylephrine response on […] administration after the test drug administration was calculated as percent change of that of control values. Area under curve was calculated, and the ratio of the values for MAP and IUP was used for calculating the uroselectivity (Table III).

[2] = percent change of phenylephrine response over 24 hours

Ki (α1B adrenoceptor): 127 nM
Selectivity α1B/α1A ([1]; functional, from pKB): 5
Selectivity α1D/α1A ([1]; functional, from pKB): 5.6
Kb ([1]; rat prostate, phenylepinephrine, read-out: α Adrenoceptor Subtype (pKB) α1A (converted)): 1.48 nM
Compound: CC(C)Oc1ccccc1N1CCN(CCCN2C(=O)C3CC(O)C(O)CC3C2=O)CC1 (stereo not shown) [Compound No. 23, 2-[3-{4-(2-Isopropoxyphenyl)piperazin-1-yl}propyl]-5,6-dihydroxy-3a,4,5,6,7,7a, hexahydro-1H-isoindole-1,3(2H)-dione-hydrochloride]
Uroselectivity Ratio IUP/MAP (conscious beagle dogs): 5.5
Area Under Curve IUP (conscious beagle dogs; [2]): 524
Area Under Curve MAP (conscious beagle dogs; [2]): 95
